Experimental findings from US10329243B2, “Biphenyl derivative and uses thereof” (XI'AN LIBANG PHARMACEUTICAL CO., LTD, priority 2015, dated 2019) are described below.

For test [1], the system named is Fas. Put plainly: Fas determination (immunohistochemical method), cerebral ischemic reperfusion MCAO model. The test is classed as in vivo, SD rats. The protocol:
(§1) Rats were intraperitoneally injected with 10% chloral hydrate 350 mg/kg after anesthesia and opened up at the center of the neck in accordance with the Zea Longa modified method. The right common carotid artery was separated, and the right external carotid artery branches was ligated. A small opening was made at the distal end of the external carotid artery, and a previously prepared thread was inserted through the common carotid artery and the external carotid artery bifurcation into the internal carotid artery, till the anterior end of the middle cerebral artery, with an immersed depth of 18 to 19 mm. The thread was then secured, and the wound was sutured layer by layer. After the operation, the rats were placed in a clean incubator to wake up. […] The sham operation group, the ischemic reperfusion group, and the Example groups were prepared strictly according to the requirements of the cerebral ischemic reperfusion model, while in the sham operation group the thread was put only into the external carotid artery. The animals were allowed to eat and drink freely after waking up. After 2 h, the thread was pulled out to achieve reperfusion. The sham operation group, the ischemic reperfusion group, and the Example groups were administered intravenously the aqueous solution of the biphenyl derivatives in PEG400 at 40 mg/kg (40 mg/kg means that 40 mg of the test compound per kg of the body weight of rats) 30 min before reperfusion and 12 h after reperfusion, respectively. The sham operation group and the ischemic reperfusion group were injected with the same amount of blank PEG400 aqueous solution at the same time point.
(§2) 24 hours after reperfusion, 8 rats in each group were sacrificed by decapitation, the brain was removed, rinsed with PBS (pH 7.4) at −20° i for 20 min, evenly sliced (with a thickness of 2 mm), stained in a 2% TTC solution at 37°% in the dark for 30 min, fixed in 10% formalin for 24 h, and photographs were taken to analyze the infarct volume. A mixture of femoral arterial and venous blood was drawn from another 8 rats in each group under anesthesia, placed in a low temperature centrifuge at 4° C., centrifuged at 3500 r/min for 20 min, and the supernatant was stored in a refrigerator at −20° C. ready for SOD and MDA detection. After the blood was drawn, a perfusion needle was insert through the apex to the ascending aorta, and saline at 4° C. was rapid infused until the effluent became clear, followed by 4% paraformaldehyde phosphate buffer perfusion for fixation; the brain was removed by craniotomy, and brain tissues 2 mm in front of and behind the optic chiasma were taken and fixed, dehydrated, rendered transparent, impregnated in wax, and embedded. Brain continuous coronary tissue pathological sections were consecutively cut for later use. The remaining 8 rats in each group were sacrificed, brains were removed, the ischemic brain hemispheres were immediately taken on an ice tray, and 10% brain tissue homogenate was prepared for the detection of IL-1β and TNF-α.
The immunohistochemical method was used for determination. Brain tissue paraffin sections were dewaxed into water, washed with 3% H2O2 to eliminate endogenous peroxidase activity, and rinsed with distilled water for 3 times. Sodium citrate buffer was used for antigen heat repairing, and blocking with calf serum was carried out at room temperature for 15 min; a rabbit anti-mouse Fas antibody was added dropwise, allowed to stand at 4°t overnight, biotinylated goat anti-rabbit IgG was added dropwise, and heated in a water bath at 37°a for 20 min. Washing with PBS for 5 min was continuously repeated 4 times, followed by staining with DAB and sufficient washing without counterstaining. The sections were then gradient dehydrated with alcohol, made transparent with toluene, sealed and fixed. Images were captured by a video camera under high-power optical microscope and inputted into the image analysis system for image analysis. […]

The test system of test [2] is rats with permanent cerebral ischemia injury. Briefly: Relative infarct volume (TTC, imageJ), permanent cerebral ischemia model. In kind it is in vivo, SD rats. To be noted: for Relative Brain infarction volume (%): 40 mg/kg intravenously 30 min before insertion of thread and 12 h after embolism, 24 h after the embolism. The protocol:
as §1, with “the permanent cerebral ischemia model” for “the ischemic reperfusion”, “up.” for “up. After 2 h, the thread was pulled out to achieve reperfusion.”, “before insertion of thread” for “before reperfusion”, “after embolism,” for “after reperfusion,”
as §2, with “the embolism,” for “reperfusion,”, “−20°i” for “−20° i”
The infarct area in each brain section was analyzed and quantified by the imageJ image software, and the ratio of cerebral infarction volume in the overall brain volume was calculated.

Setting [3] is: ischemic reperfusion MCAO rats, 40 mg/kg intravenously, brain sections 24 h after reperfusion, gray scale inversely proportional to positive expression.

In the case of “3,3′,5,5′-tetraisopropylbiphenyl-4,4′-bis(oxymethylene phosphate) [Example 3 group]”, in test [1] (rat, in vivo, iv, 40 mg/kg), the “Fas average gray scale” value is given as 144.56 ± 6.32.
In the case of `CC1=NN(c2ccccc2)C(=O)C1` [Edaravone injection, edaravone, reference compound], the “Brain relative infarct volume (%)” value in test [2] (edaravone 3 mg/kg) stood at 31.29 ± 4.02 %. For the same molecule, the “Fas average gray scale” value in test [1] (ischemic reperfusion rat model, edaravone 3 mg/kg) is 139.65 ± 2.05.
As to `CC(=O)Oc1c(C(C)C)cc(-c2cc(C(C)C)c(O)c(C(C)C)c2)cc1C(C)C` [Example 1 group, 4′-hydroxy-3,3′,5,5′-tetraisopropylbiphenyl-4-acetate], the “Relative Brain infarction volume (%)” value in test [2] (40 mg/kg) turned out to be 24.71 ± 3.76 %.
On to `CC(=O)Oc1c(C(C)C)cc(-c2cc(C(C)C)c(OC(C)=O)c(C(C)C)c2)cc1C(C)C` [Example 2 group, 3,3′,5,5′-tetraisopropylbiphenyl-4′-diacetate], for which the “Relative Brain infarction volume (%)” value in test [2] is recorded as 27.92 ± 4.51 %. Besides, the “Fas average gray scale” value in test [1] (setting [3]) is listed as 148.36 ± 5.33.
For `CC(C)c1cc(-c2cc(C(C)C)c(OC(=O)CCC(=O)O)c(C(C)C)c2)cc(C(C)C)c1O` [Example 5 group, [4-(4′-hydroxy-3,3′,5,5′-tetraisopropylbiphenyl)oxy]-4-carbonyl butyric acid], in that order: 28.37 ± 5.02 % and 148.02 ± 4.16.
For the molecule `CCCc1cc(-c2cc(CCC)c(O)c(C(C)C)c2)cc(C(C)C)c1O` [Example 6 group, 4,4′-dihydroxy-3,3′-diisopropyl-5,5′-dipropylbiphenyl], the “Relative Brain infarction volume (%)” value in test [2] amounted to 22.53 ± 4.62 %. In test [1] (setting [3]), the “Fas average gray scale” value was determined as 155.33 ± 3.78.
Regarding `CCCc1cc(-c2cc(CCC)c(O)c(CCC)c2)cc(CCC)c1O` [Example 7 group, 4,4′-dihydroxy-3,3′,5,5′-tetrapropylbiphenyl], the “Relative Brain infarction volume (%)” value in test [2] is 21.39 ± 4.01 %. The “Fas average gray scale” value in test [1] (setting [3]) stood at 157.26 ± 4.05.
For `CC(C)c1cc(-c2cc(C(C)C)c(C(=O)O)c(C(C)C)c2)cc(C(C)C)c1O` [Example 8 group, 4′-hydroxy-3,3′,5,5′-tetraisopropylbiphenyl-4-carboxylic acid], the “Relative Brain infarction volume (%)” value in test [2] is 29.74 ± 3.13 %. Besides, the “Fas average gray scale” value in test [1] (setting [3]) came out at 148.82 ± 7.62.
Consider `CC(C)c1cc(-c2cc(C(C)C)c(Cl)c(C(C)C)c2)cc(C(C)C)c1O` [Example 9 group, 4-chloro-4′-hydroxy-3,3′,5,5′-tetraisopropylbiphenyl], for which the “Fas average gray scale” value in test [1] (rat, in vivo, iv, 40 mg/kg) was 147.11 ± 5.61.
Consider `CC(C)c1cc(-c2cc(C(C)C)c(OC=O)c(C(C)C)c2)cc(C(C)C)c1O` [Example 10 group], for which, in test [2], the “Relative Brain infarction volume (%)” value stood at 26.46 ± 4.52 %. In addition, the “Fas average gray scale” value in test [1] (setting [3]) is given as 145.06 ± 4.08.
`CC(C)c1cc(-c2cc(C(C)C)c(OC(=O)C(N)C(C)C)c(C(C)C)c2)cc(C(C)C)c1O` (stereo not drawn) [Example 11 group, 4′-hydroxy-3,3′,5,5′-tetraisopropylbiphenyl-2-amino-3-methylbutyrate]: the “Relative Brain infarction volume (%)” value in test [2] is on record as 28.98 ± 5.24 %. The “Fas average gray scale” value in test [1] (setting [3]) is recorded as 152.12 ± 6.17.
For `CC(=O)OC(C)Oc1c(C(C)C)cc(-c2cc(C(C)C)c(O)c(C(C)C)c2)cc1C(C)C` (stereo not drawn) [Example 12 group, Ethyl 1-(4′-hydroxy-3,3′,5,5′-tetraisopropylbiphenyl-4-oxo)acetate], in that order: 31.79 ± 5.94 % and 144.26 ± 3.47.
